Results taken from patent US20180193327A1, “PROPHYLACTIC LEUKOTRIENE INHIBITOR AND IMPLANT DISPLACEMENT THERAPY FOR PREVENTION AND TREATMENT OF CAPSULAR CONTRACTURE IN SILICONE BREAST AUGMENTATION” (priority 2017, published 2018).
Values joined by “and” are separate entries in the source; they are usually repeats but may differ in a detail not shown here. Equal values may be shown once. Marks after values point to notes of the source that are not given here.

Columns and labels:
[1] = tested on: capsular contracture in patients undergoing primary silicone gel breast augmentation; assay: Capsular contracture (Baker scale) at one year after primary silicone gel breast augmentation, retrospective review; assay type: in vivo, patients (women); details: for % of Patients with Capsular Contracture: one year following primary silicone gel breast augmentation, Baker grade III or IV, three months therapy plus implant displacement protocol
Experimental: The study was performed with a retrospective review of 1122 consecutive women undergoing primary, silicone gel breast augmentation. Over time, the author added leukotriene inhibitor therapy to the postoperative treatment of patients. The first group of patients were treated without leukotriene therapy. Consecutive patients agreeing to the off-label use of leukotriene inhibitors were then studied. The second group of consecutive patients was offered Singulair therapy postoperatively while all other aspects of the surgical technique and care remained the same. Finally, the author offered Accolate therapy to the final group of patients undergoing breast augmentation.
Patients chose augmentation with either a periareolar or inframammary approach. Silicone breast augmentation procedures were performed using a standardized, dual plane technique. All patients were treated with preoperative intravenous antibiotics, either a one-gram dose of cephazolin or 600 mg of clindamycin, selected based on allergy profiles. Prior to insertion of implants, triple-antibioic irrigation (50,000 U bacitracin, 1 g Ancef, 80 mg gentamicin) with the addition of 50 ml of povidone-iodine in 500 ml of normal saline was utilized. All implants were placed with power-free glove changes, and inserted through a skin barrier/nipple shield using Tegaderm dressings. The implant displacement therapy protocol was initiated on post-operative day two.
(§1) Patients that were administered Singulair were treated according to the method described in FIGS. 1 and 2 of the present disclosure. First, patients were evaluated clinically to see if they were a candidate for breast augmentation with physical examination and medical history. The medical history review included discussion and review of liver health, current medications, and potential contraindications or drug interactions with leukotriene inhibitors. Patients were then provided an informed consent for the use of Singulair, 10 mg daily. The informed consent reviewed the potential benefits and risks of this medication which is taken as an off-label indication. Breast augmentation was performed with either smooth or textured silicone or saline implants. On the day following surgery, Singulair therapy is initiated, 10 mg QD. In the first week following surgery, the implant displacement therapy protocol was begun for patients with smooth surface silicone implants. The implant displacement therapy protocol may also be performed, if indicated, for patients with mildly textured breast implants, but not with moderately textured or highly textured devices. Monitoring for side effects from Singulair was conducted by educating patients as to the common side effects and discussing with patients noted side effects. Singulair can be discontinued if the side effects are significant. At thirty days postoperatively, the softness of the breast implants as well as the implant movement and position was evaluated to determine if capsular contracture was present. Two more months of Singulair was prescribed. Following three total months of therapy, the breasts were evaluated for the presence of capsular contracture. Patients without clinical capsular contracture, Baker I and II, were completed with therapy. Patients with clinical capsular contracture, either Baker III or IV, were treated with an additional three months of Singulair therapy as prescribed with the continuation of implant displacement therapy protocol. If patients declined to take Singulair or had side effects from the medication, implant displacement therapy protocol was continued and patients were offered 800 units-1000 units of Vitamin E daily in lieu of Singulair.
Patients that were administered Accolate were treated according to the method described in FIGS. 1 and 2 of the present disclosure. First, patients were evaluated clinically to see if they were a candidate for breast augmentation with physical examination and medical history. […]

[2] = Side effects and discontinuation reported by patients taking leukotriene inhibitors after primary augmentation; assay type: in vivo, patients (women); details: for Percentage of patients discontinuing the medication because of (minor) side effects or cost: female, 3 months
Experimental: as §1
Patients that were administered Accolate were treated according to the method described in FIGS. 1 and 2 of the present disclosure. First, patients were evaluated clinically to see if they were a candidate for breast augmentation with physical examination and medical history. The medical history review included discussion and review of liver health, current medications, and potential contraindications or drug interactions with leukotriene inhibitors. Patients were then provided an informed consent for the use of Accolate (Zafirlukast), 20 mg twice daily. Patients were counseled to take the medication at least one hour before meals. The informed consent reviews the potential benefits and risks of this medication which is taken as an off-label indication. Breast augmentation was performed with either smooth or textured silicone or saline implants. On the day following surgery, Accolate therapy was initiated, 20 mg BID. In the first week following surgery, the implant displacement therapy protocol was begun for patients with smooth surface silicone implants. The implant displacement therapy protocol may also be performed, if indicated, for patients with mildly textured breast implants, but not with moderately textured or highly textured devices. […]

[3] = Liver function studies (transaminases) during Accolate therapy after primary augmentation; assay type: in vivo, patients (women)
Experimental: At thirty days postoperatively, blood testing was performed, with a measurement of transaminase levels and liver function studies. The softness of the breast implants as well as the implant movement and position was evaluated to determine if capsular contracture was present. Patients with normal liver function studies were provided two more months of Accolate therapy. At the completion of this, two additional months of treatment, the breasts were evaluated for the presence of capsular contracture. Patients without clinical capsular contracture, Baker I and II, were completed with therapy. Patients with clinical capsular contracture, either Baker III or IV, underwent repeat liver function studies. If transaminase levels were within normal limits, an additional three months of Accolate therapy was prescribed with the continuation of breast implant displacement therapy.
If liver function studies were abnormal and transaminase levels were elevated at any time in the treatment period, Accolate therapy was immediately discontinued and repeat liver function studies were performed every 14 days until normal levels were reached. If applicable, breast implant displacement therapy was continued and patients were offered 800 units-1000 units of Vitamin E daily in lieu of Accolate. Patients undergoing treatment with Accolate were monitored with a blood testing program. Following thirty days of treatment with Accolate, patients underwent liver function studies with evaluation of transaminase enzymes, including SGOT and SGPT, or ALT and AST. Normal ranges of enzyme levels were required to continue Accolate therapy.
All patients receiving Accolate therapy underwent liver function studies four weeks following the initiation of Accolate therapy. […] Follow-up liver function studies were performed at two week intervals, until transaminases normalized. […] Liver function studies were repeated after three months of Accolate therapy for patients choosing to continue Accolate for a six month course.

[4] = FDA post-approval studies for the treatment of asthma; cited from earlier work
[5] = Liver function studies (transaminases) during Accolate therapy after capsulectomy and implant replacement; assay type: in vivo; details: at one month postoperatively; group of 279 patients, 20 mg twice daily
Experimental: (§2) Patients were treated with Accolate 20 mg twice daily, beginning the day after surgery. Patients with a history of hepatitis or liver disease were excluded. Patient compliance with the recommended dosage was encouraged, but patients were advised that they could discontinue the medication at any time that they experienced significant side effects. All patients receiving Accolate therapy underwent liver function studies 4 weeks after the initiation of Accolate therapy. […] Follow-up liver function studies were performed at 2-week intervals, until transaminases normalized. […] Liver function studies were repeated after 3 months of Accolate therapy for patients choosing to continue Accolate for a 6-month course.

[6] = tested on: capsular contracture in patients undergoing capsulectomy and silicone implant replacement; assay: Recurrence of capsular contracture (Baker scale) at one year after capsulectomy and silicone implant replacement; assay type: in vivo
Experimental: The study was performed with patients undergoing primary capsulectomy and silicone implant replacement for grade III and IV capsular contracture according to the methods depicted in FIGS. 3 and 4 of the present disclosure. […] Patients with a history of subglandular breast augmentation or those who underwent concurrent mastopexy revision or replacement with textured silicone breast implants were not included in the study. Enrolled patients underwent surgery with either an inframammary or periareolar incision.
One group of patients underwent capsulectomy and implant replacement without the use of leukotriene inhibitors. Another group of patients agreed to the off-label use of zafirlukast (Accolate; AstraZeneca Pharmaceuticals, Wilmington, Del.) and were treated beginning the day following the capsulectomy and implant replacement procedure. All patients were between the ages of 22 and 60 years of age and consented to the use of Mentor Memory Gel silicone gel breast implants with a smooth surface (Mentor Worldwide, Irvine, Calif.) and the off-label use of triple-antibiotic irrigation containing povidone-iodine (Betadine; Purdue Frederick Co., Norwalk, Conn.). In addition, a detailed informed consent was provided for the off-label use of Accolate. All patients were adequately informed of the risks, potential unknown benefits, cost, and potential side effects of leukotriene therapy with both verbal and written consent. Patients were informed that taking Accolate was voluntary and that they could discontinue this medication at any time for any reason.
Patients undergoing capsulectory and re-augmentation were treated with the incision initially used by the original surgeon, with either an inframmary or periareolar approach. All patients were surgically treated with complete periprosthetic capsulectomy. Patients were also treated with preoperative intravenous antibiotics, either a 1-g dose of cephazolin or 600 mg of clindamycin, selected based on allergy profiles. Before insertion of implants, triple-antibiotic irrigation [50,000 U of bacitracin, 1 g of Ancef (GlaxoSmithKline, Middlesex, United Kingdom), and 80 mg of gentamicin] with the addition of 50 ml of povidone-iodine in 500 ml of normal saline was used.
Hemovac ⅛ inch drains (Medline Industries, Rialto, Calif.) were used on all breasts receiving capsulectomy. All implants were placed with powder-free glove changes and inserted through a skin barrier/nipple shield using Tegaderm (3M, St. Paul, Minn.) dressings. Drains were left in place until drainage from one breast reached 30 ml/24 hrs, or 60 ml/24 hrs if both breasts were treated. The implant displacement therapy protocol was initiated two days after drains were removed.
as §2
All patients were evaluated at frequent follow-up appointments, including early postoperative visits, 1 month, 3 months, 6 months, and 1 year postoperatively. Capsular contracture was evaluated by the Baker scale. Patients with grade III or IV capsular contractures were considered as having clinical capsular contracture. Each patient was considered based on the number of their breasts associated with clinical capsular contracture ranging from none to two breasts. […]

[7] = Voluntary discontinuation of Accolate after capsulectomy and implant replacement; assay type: in vivo; details: group of 279 patients
Experimental: as §2
A total of 447 consecutive patients were evaluated during the study period. A first group of 168 consecutive patients with encapsulated breast implants were studied and no leukotriene inhibitor therapy was offered postoperatively. This included 55 patients with bilateral capsular contracture. […] A second group of 279 consecutive patients with encapsulated breast implants were studied and treated with Accolate, including 87 patients with bilateral capsular contracture. There were 366 breasts with capsular contracture among patients in this group. […] Twelve patients discontinued the use of Accolate voluntarily based on cost or minor side effects and were excluded from the study.

[8] = one year following silicone gel breast augmentation
[9] = one year following silicone gel breast augmentation, patients with contracture/patients followed
[10] = preoperative Grade III (172 breasts)
[11] = preoperative Grade IV (194 breasts)
[12] = preoperative Total III/IV (366 breasts)

Structure (SMILES): CC(C)(O)c1ccccc1CC[C@@H](SCC1(CC(=O)O)CC1)c1cccc(/C=C/c2ccc3ccc(Cl)cc3n2)c1 [Singulair, Montelukast]
- % of Patients with Capsular Contracture [1]: 3.27%
- Percentage of patients demonstrating capsular contracture, inframammary incision [1, 8]: 2.08%
- Percentage of patients demonstrating capsular contracture, periareolar incision [1, 8]: 3.81%
- Percentage of patients demonstrating capsular contracture, total (both incisions) [1, 8]: 3.27%
- Percentage of patients discontinuing the medication because of (minor) side effects or cost ([2]; human, in vivo): 2.5%
- Common side effects reported by patients ([2]; human, in vivo): headache, GI symptoms, fatigue, rash

Structure (SMILES): COc1cc(C(=O)NS(=O)(=O)c2ccccc2C)ccc1Cc1cn(C)c2ccc(NC(=O)OC3CCCC3)cc12 [Accolate, Zafirlukast]
- Percentage of patients with (mild) elevation of transaminases ([3]; at 30 days of treatment, 20 mg bid, medication discontinued): 0.58%
- Number of patients with (mild) elevation of transaminases ([3]; at 30 days of treatment, out of 520 treated): Three and 3/520
- Time for transaminases to return to normal after discontinuing the medication ([3]; two patients within two weeks, one patient within four weeks): four
- Potential significant (uncommon) risks reported [4]: chemical hepatitis, liver failure, and even death
- Number of patients with (mild) elevation of transaminases [5]: Two
- Reduction of the encapsulation risk ([1]; addition of the drug in the first three months following augmentation, versus no leukotriene inhibitor): over 50%
- % of Patients with Capsular Contracture [1]: 2.19%*
- Percentage of patients demonstrating capsular contracture, inframammary incision [1, 8]: 1.74%
- Percentage of patients demonstrating capsular contracture, periareolar incision [1, 8]: 2.31% and 2.38%
- Percentage of patients demonstrating capsular contracture, total (both incisions) [1, 8]: 2.19%
- Number of patients demonstrating capsular contracture, inframammary incision [1, 9]: 2/115
- Number of patients demonstrating capsular contracture, total (both incisions) [1, 9]: 8/375
- Number of patients with grade III/IV capsular contracture at three months that improved to grade II with an additional three months of therapy ([1]; primary augmentation, six months of therapy in total): five
- Capsular contracture rate compared with patients not treated with leukotriene inhibitors ([1]; three months of therapy after primary augmentation, result in words): significantly lower
- Number of breasts with capsular contracture, postoperative Grade III [6, 10]: 7
- Number of breasts with capsular contracture, postoperative Grade IV [6, 10]: 2
- Number of breasts with capsular contracture, postoperative Total [6, 10]: 9
- Percent of breasts with capsular contracture, postoperative Grade III [6, 10]: 4.1%
- Percent of breasts with capsular contracture, postoperative Grade IV [6, 10]: 1.2%
- Percent of breasts with capsular contracture, postoperative Total [6, 10]: 5.3%
- Number of breasts with capsular contracture, postoperative Grade III [6, 11]: 15
- Number of breasts with capsular contracture, postoperative Grade IV [6, 11]: 5
- Number of breasts with capsular contracture, postoperative Total [6, 11]: 20
- Percent of breasts with capsular contracture, postoperative Grade III [6, 11]: 7.8%
- Percent of breasts with capsular contracture, postoperative Grade IV [6, 11]: 2.6%
- Percent of breasts with capsular contracture, postoperative Total [6, 11]: 10.3%
- Number of breasts with capsular contracture, postoperative Grade III [6, 12]: 22
- Number of breasts with capsular contracture, postoperative Grade IV [6, 12]: 7
- Number of breasts with capsular contracture, postoperative Total [6, 12]: 29
- Percent of breasts with capsular contracture, postoperative Grade III [6, 12]: 6.0%
- Percent of breasts with capsular contracture, postoperative Grade IV [6, 12]: 1.9%
- Percent of breasts with capsular contracture, postoperative Total [6, 12]: 7.9%
- Percentage of patients discontinuing the medication because of (minor) side effects or cost ([2]; human, in vivo): 6.2%
- Irreversible side effects noted in the study ([2]; human, in vivo): no irreversible side effects
- Patients who tolerated the medication well ([2]; primary augmentation study): ~95%
- Number of patients who discontinued voluntarily based on cost or minor side effects [7]: Twelve
